From patent US9738902B2, “Modified PYR/PYL receptors activated by ligands” (priority 2013, dated 2017)

Experiments:
PYR1-OX = experiment: qRT-PCR of ABA-regulated genes RD29B and RAB18; type: in vivo, Arabidopsis; conditions: 50 μM ABA, 8 hours
Protocol: One of ABA's major effects is to regulate gene expression. We therefore examined the effects of ABA and mandipropamid on gene expression in wild type, PYR-OX, MDP1 and MPD2 transgenic plants. Seed of the wild type or transgenic lines were surface sterilized, stratified for 4 days at 4° C. and then grown for 10 days at room temperature under continuous illumination in a liquid culture consisting of 0.5×MS salts and 0.5% sucrose and grown with continuous shaking to provide aeration. After 10 days, the culture solutions were adjusted to contain 50 μM ABA, 2 μM mandipropamid, or a mock treatment. After 8 hours exposure to the test compounds RNA was isolated using RNAEasy™ Plant RNA isolation kit (Qiagen, USA) and treated with DNAse. The purified RNA was utilized in qRT-PCR reactions using primers for the ABA-regulated genes RD29B or RAB18. Biological triplicate and triple technical replicate measurements were conducted. To perform qRT-PCR analyses, cDNA was generated from 5 μg of total RNA using superscript reverse transcriptase III (Invitrogen, USA), in reaction mixture containing a oligo-dT20 (SEQ ID NO:110) and a ribosomal RNA primer. Real-time quantitative PCR analysis was performed by ΔCt method of relative quantification. PCR mixtures contained cDNA, Maxima® SYBR green/Fluorescein qPCR master mix (Fermentas, USA) and 330 nM of each gene-specific primer. RT-PCRs were conducted using a BioRad CFX96 Real-Time PCR System and the data were processed using the BioRad CFX Manager software (BioRad, USA). PCRs were performed under the following cycling conditions: 3 min at 95° C., followed by 40 cycles of 10 sec at 95° C., 10 sec at 55° C. and 30 sec at 72° C. in 96-well optical reaction plates (BioRad, USA). The specificity of amplicons was verified by melting curve (disassociation) analysis (60-95° C.) after 40 cycles. Input cDNA was normalized using an internal control gene, PEX4 (AT5G25760).

[1] = molecular target: T1, GST-HAB1 with 6×-His-PYR1^MANDI (Arabidopsis thaliana, UniProt O49686, F108A/F159L/K59R/S122G/V81I/Y58H); experiment: PP2C enzyme inhibition assay (4-methylumbelliferyl-phosphate); type: biochemical; conditions: PYR1^MANDI with GST-HAB1, GST-ABI1, GST-ABI2
T1 construct: made in house; host or cells: E. coli BL21[DE3]pLysS (receptor)
Protocol: We next characterized the effects of recombinant PYR1^MANDI on PP2C activity using the fluorogenic substrate 4-methylumbelliferyl-phosphate. Recombinant receptor and PP2C proteins were prepared as described above and used to examine PP2C inactivation in response to mandipropamid or ABA. Enzyme inhibition assays were conducted using the following assay conditions: 100 nM 6×-His-PYR1^MANDI, 50 nM GST-PP2C, 100 mM Tris-OAc (pH 7.9), 100 mM NaCl, 1 mM MnCl2, 1% β-mercaptoethanol. […] The three ABA-regulated clade A PP2Cs, GST-HAB1, GST-ABI1 and GST-ABI2 were each tested under the same enzyme conditions in separate reactions. The assays were conducted at a variety of mandipropamid or ABA concentrations so that IC50 values could be determined. […] Thus, the PYR1^MANDI receptor is highly sensitive to activation by mandipropamid and interacts with multiple clade A PP2Cs in response to mandipropamid. This high level of sensitivity is consistent with the yeast two hybrid results described above in which a detectable interaction between PYR1^MANDI and HAB1 could be observed at concentrations as low as 2 nM (see Table 1). We note that the yeast two hybrid reporter systems requires only a small percentage of PYR1^MANDI receptors to bind HAB1 for an interaction signal and is therefore a potentially more sensitive indicator than in vitro assays. […] Thus these in vitro assays confirm that PYR1^MANDI is selectively activated by mandipropamid.

PYR1 K59R F159V = molecular target: T2, PYR1 K59R F159V (Arabidopsis thaliana, UniProt O49686, F159V/K59R); experiment: Y2H Pocket Library Screen (HAB1, X-gal); type: cell-based
T2 construct: expressed in transfected cells; host or cells: S. cerevisiae Y190
Protocol: (§1) The set of 475 mutant plasmids were individually transformed into the Y190 yeast two hybrid reporter strain co-transformed with pACT-HAB1, as previously described (Park et al., 2009). The yeast strains generated were arrayed into 96-well plates yielding what we refer to as the “pocket library”. The pocket library strains were spotted onto agar plates containing selective synthetic dextrose (minus Leu & Trp) medium that was supplemented with a single test compound at 100 μM. The pocket library strains were separately tested for responsiveness to the following compounds: dichlobenil, benzothiadiazole, mandipropamid, fludioxonil, and benoxacor. After incubating test plates at 30° C. for two days, colonies were chloroform lysed and stained to reveal β-galactosidase expression levels, using previously described methods (Park et al., 2009). Mutants displaying responsiveness to the test compound, if present, were identified by virtue of X-gal staining and then subjected to subsequent optimization efforts. Using this approach we identified mutations that conferred detectable sensitivity to the compounds tested (see entries labeled “Pocket Library Screens” in Table 1).

PYR1 K59R M158V = molecular target: T3, PYR1 K59R M158V (Arabidopsis thaliana, UniProt O49686, K59R/M158V); experiment: Y2H Pocket Library Screen (HAB1, X-gal); type: cell-based
T3 construct: expressed in transfected cells; host or cells: S. cerevisiae Y190 two-hybrid reporter strain
Protocol: as §1

PYR1 K59R M158C = molecular target: T4, PYR1 K59R M158C (Arabidopsis thaliana, UniProt O49686, K59R/M158C); experiment: Y2H Pocket Library Screen (HAB1, X-gal); type: cell-based
T4 construct: expressed in transfected cells; host or cells: S. cerevisiae Y190 two-hybrid reporter strain
Protocol: as §1

PYR1 K59R A89W = molecular target: T5, PYR1 K59R A89W (Arabidopsis thaliana, UniProt O49686, A89W/K59R); experiment: Y2H Pocket Library Screen (HAB1, X-gal); type: cell-based
T5 construct: expressed in transfected cells; host or cells: S. cerevisiae Y190 yeast two-hybrid reporter strain
Protocol: as §1

PYR1 K59R T162W = molecular target: T6, PYR1 K59R T162W (Arabidopsis thaliana, UniProt O49686, K59R/T162W); experiment: Y2H Pocket Library Screen (HAB1, X-gal); type: cell-based
T6 construct: expressed in transfected cells; host or cells: S. cerevisiae Y190
Protocol: as §1

PYR1 K59R A89I = molecular target: T7, PYR1 K59R A89I (Arabidopsis thaliana, UniProt O49686, A89I/K59R); experiment: Y2H Pocket Library Screen (HAB1, X-gal); type: cell-based
T7 construct: expressed in transfected cells; host or cells: S. cerevisiae Y190 yeast two-hybrid reporter strain
Protocol: as §1

PYR1 K59R S92W = molecular target: T8, PYR1 K59R S92W (Arabidopsis thaliana, UniProt O49686, K59R/S92W); experiment: Y2H Pocket Library Screen (HAB1, X-gal); type: cell-based
T8 construct: expressed in transfected cells; host or cells: S. cerevisiae Y190 yeast two-hybrid reporter strain
Protocol: as §1

PYR1 K59R S92I = molecular target: T9, PYR1 K59R S92I (Arabidopsis thaliana, UniProt O49686, K59R/S92I); experiment: Y2H Pocket Library Screen (HAB1, X-gal); type: cell-based
T9 construct: expressed in transfected cells; host or cells: S. cerevisiae Y190 yeast two-hybrid reporter strain
Protocol: as §1

PYR1 K59R L87F = molecular target: T10, PYR1 K59R L87F (Arabidopsis thaliana, UniProt O49686, K59R/L87F); experiment: Y2H Pocket Library Screen (HAB1, X-gal); type: cell-based
T10 construct: expressed in transfected cells; host or cells: S. cerevisiae Y190 yeast two-hybrid reporter strain
Protocol: as §1

PYR1 K59R M158T = molecular target: T11, PYR1 K59R M158T (Arabidopsis thaliana, UniProt O49686, K59R/M158T); experiment: Y2H Pocket Library Screen (HAB1, X-gal); type: cell-based
T11 construct: expressed in transfected cells; host or cells: S. cerevisiae Y190 two-hybrid reporter strain
Protocol: as §1

PYR1 K59R A89I S92I = molecular target: T12, PYR1 K59R A89I S92I (Arabidopsis thaliana, UniProt O49686, A89I/K59R/S92I); experiment: Y2H Combinatorial Mutagenesis Screen I (HAB1, X-gal); type: cell-based
T12 construct: expressed in transfected cells; host or cells: S. cerevisiae Y190 two-hybrid reporter strain
From the text: (§2) This screening approach yielded mutants at ligand contacting residues that alter sensitivity to specific ligands. We reasoned that receptor sensitivity could be improved by systematically constructing combinations of the best mutant variants identified in the first round of screening. To test this, we constructed mutant combinations using the strongest mutations identified for mandipropamid, benzothiadiazole, benoxacor or fludioxonil sensitivity. The mutations selected for combinatorial mutagenesis are listed in bold type in Table 1; The mutant combinations were constructed using the QuickChange Lightning Multi Site-Directed PCR Mutagenesis kit (Agilent, USA) using pBD-PYR1^K59R template DNA and mutagenic primers, essentially as previously described (Mosquna et al., 2011). The mutant combinations were sequence validated, introduced into the pACT-HAB1 Y190 reporter strain and then tested for responsiveness to a range of compound concentrations (100, 50, 25, 10, 1, 0.2, 0.1 or 0 μM each test compound). These efforts yielded double mutant receptor variants with improved sensitivity for the 4 compound/receptor pairs examined (see entries labeled “Combinatorial Mutagenesis Screen I” in Table 1).

PYR1 K59R A89I S92W = molecular target: T13, PYR1 K59R A89I S92W (Arabidopsis thaliana, UniProt O49686, A89I/K59R/S92W); experiment: as above; type: cell-based
T13 construct: expressed in transfected cells; host or cells: S. cerevisiae Y190 two-hybrid reporter strain
From the text: as §2

T5 sequence (O49686 whole entry K59R/A89W): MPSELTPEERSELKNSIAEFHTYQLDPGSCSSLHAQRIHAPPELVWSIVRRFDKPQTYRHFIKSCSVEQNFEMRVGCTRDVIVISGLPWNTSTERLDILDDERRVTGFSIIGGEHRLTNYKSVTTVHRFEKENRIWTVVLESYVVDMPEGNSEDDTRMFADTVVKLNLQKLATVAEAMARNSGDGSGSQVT
T5 sequence (Q9CAJ0 23-511, further chain): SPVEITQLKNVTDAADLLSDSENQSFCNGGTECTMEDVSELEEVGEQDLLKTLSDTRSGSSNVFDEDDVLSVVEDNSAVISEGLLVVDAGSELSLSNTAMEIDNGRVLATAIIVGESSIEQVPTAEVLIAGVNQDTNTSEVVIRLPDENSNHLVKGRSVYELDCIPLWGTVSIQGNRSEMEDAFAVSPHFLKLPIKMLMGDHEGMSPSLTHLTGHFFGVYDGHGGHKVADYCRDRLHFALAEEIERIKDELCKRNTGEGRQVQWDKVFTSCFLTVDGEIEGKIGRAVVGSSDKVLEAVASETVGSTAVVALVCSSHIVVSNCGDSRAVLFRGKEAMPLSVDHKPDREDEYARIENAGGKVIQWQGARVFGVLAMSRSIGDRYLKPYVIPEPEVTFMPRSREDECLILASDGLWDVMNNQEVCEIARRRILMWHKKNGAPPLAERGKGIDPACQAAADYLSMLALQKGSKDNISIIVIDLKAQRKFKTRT
T7 sequence (O49686 whole entry K59R/A89I): as the sequence (O49686 whole entry K59R/A89W) above, with W89I counted along it
T7 sequence (Q9CAJ0 23-511, further chain): as the sequence (Q9CAJ0 23-511, further chain) above
T12 sequence (O49686 whole entry K59R/A89I/S92I): as the sequence (O49686 whole entry K59R/A89W) above, with W89I, S92I counted along it
T12 sequence (Q9CAJ0 23-511, further chain): as the sequence (Q9CAJ0 23-511, further chain) above
T9 sequence (O49686 whole entry K59R/S92I): as the sequence (O49686 whole entry K59R/A89W) above, with W89A, S92I counted along it
T9 sequence (Q9CAJ0 23-511, further chain): as the sequence (Q9CAJ0 23-511, further chain) above
T6 sequence (O49686 whole entry K59R/T162W): as the sequence (O49686 whole entry K59R/A89W) above, with W89A, T162W counted along it
T6 sequence (Q9CAJ0 23-511, further chain): as the sequence (Q9CAJ0 23-511, further chain) above
T4 sequence (O49686 whole entry K59R/M158C): as the sequence (O49686 whole entry K59R/A89W) above, with W89A, M158C counted along it
T4 sequence (Q9CAJ0 23-511, further chain): as the sequence (Q9CAJ0 23-511, further chain) above
T11 sequence (Q9CAJ0 23-511): as the sequence (Q9CAJ0 23-511, further chain) above
T11 sequence (O49686 whole entry K59R/M158T): as the sequence (O49686 whole entry K59R/A89W) above, with W89A, M158T counted along it
T13 sequence (Q9CAJ0 23-511): as the sequence (Q9CAJ0 23-511, further chain) above
T13 sequence (O49686 whole entry K59R/A89I/S92W): as the sequence (O49686 whole entry K59R/A89W) above, with W89I, S92W counted along it
T1 sequence (Q9CAJ0 23-511): as the sequence (Q9CAJ0 23-511, further chain) above
T1 sequence (O49686 whole entry Y58H/K59R/V81I/F108A/S122G/F159L): as the sequence (O49686 whole entry K59R/A89W) above, with Y58H, V81I, W89A, F108A, S122G, F159L counted along it
T8 sequence (Q9CAJ0 23-511): as the sequence (Q9CAJ0 23-511, further chain) above
T8 sequence (O49686 whole entry K59R/S92W): as the sequence (O49686 whole entry K59R/A89W) above, with W89A, S92W counted along it
T10 sequence (O49686 whole entry K59R/L87F): as the sequence (O49686 whole entry K59R/A89W) above, with L87F, W89A counted along it
T10 sequence (Q9CAJ0 23-511, further chain): as the sequence (Q9CAJ0 23-511, further chain) above
T2 sequence (O49686 whole entry K59R/F159V): as the sequence (O49686 whole entry K59R/A89W) above, with W89A, F159V counted along it
T2 sequence (Q9CAJ0 23-511, further chain): as the sequence (Q9CAJ0 23-511, further chain) above
T3 sequence (O49686 whole entry K59R/M158V): as the sequence (O49686 whole entry K59R/A89W) above, with W89A, M158V counted along it
T3 sequence (Q9CAJ0 23-511, further chain): as the sequence (Q9CAJ0 23-511, further chain) above

Compound	levels of RAB18 and RD29 induced by ABA, compared with wild type (PYR1-OX)	activation of the receptors by ABA [1]	Threshold (PYR1 K59R F159V)	Threshold (PYR1 K59R M158V)	Threshold (PYR1 K59R M158C)	Threshold (PYR1 K59R A89W)	Threshold (PYR1 K59R T162W)	Threshold (PYR1 K59R A89I)	Threshold (PYR1 K59R S92W)	Threshold (PYR1 K59R S92I)	Threshold (PYR1 K59R L87F)	Threshold (PYR1 K59R M158T)	Threshold (PYR1 K59R A89I S92I)	Threshold (PYR1 K59R A89I S92W)
CC1=CC(=O)CC(C)(C)[C@@]1(O)/C=C/C(C)=C\C(=O)O [ABA, abscisic acid]	higher	not appreciably activated	–	–	–	–	–	–	–	–	–	–	–	–
CC1COc2ccccc2N1C(=O)C(Cl)Cl (centres unmarked) [Benoxacor, benoxacor]	–	–	100 µM	100 µM	100 µM	100 µM	50 µM	100 µM	50 µM	50 µM	100 µM	100 µM	50 µM	50 µM
